# Measurements: patent US7030242B2, “Selective inhibition of aggrecanase in osteoarthritis treatment” (Pfizer Inc, priority 1999, dated 2006)
# Like-named read-outs stand apart in the source and are kept apart here.
# Experiments:
# TACE = molecular target: T1, TACE (Homo sapiens, UniProt P78536); experiment: Inhibition of soluble TNF-α production (TACE whole blood assay); assay type: cell-based; conditions: Table 2, read-out: TACE (IC50 class)
# T1 construct: Human mononuclear cells are isolated from anti-coagulated human blood; endogenous in cells; host or cells: human peripheral blood mononuclear cells, LPS stimulated
# T1 sequence (P78536 215-824): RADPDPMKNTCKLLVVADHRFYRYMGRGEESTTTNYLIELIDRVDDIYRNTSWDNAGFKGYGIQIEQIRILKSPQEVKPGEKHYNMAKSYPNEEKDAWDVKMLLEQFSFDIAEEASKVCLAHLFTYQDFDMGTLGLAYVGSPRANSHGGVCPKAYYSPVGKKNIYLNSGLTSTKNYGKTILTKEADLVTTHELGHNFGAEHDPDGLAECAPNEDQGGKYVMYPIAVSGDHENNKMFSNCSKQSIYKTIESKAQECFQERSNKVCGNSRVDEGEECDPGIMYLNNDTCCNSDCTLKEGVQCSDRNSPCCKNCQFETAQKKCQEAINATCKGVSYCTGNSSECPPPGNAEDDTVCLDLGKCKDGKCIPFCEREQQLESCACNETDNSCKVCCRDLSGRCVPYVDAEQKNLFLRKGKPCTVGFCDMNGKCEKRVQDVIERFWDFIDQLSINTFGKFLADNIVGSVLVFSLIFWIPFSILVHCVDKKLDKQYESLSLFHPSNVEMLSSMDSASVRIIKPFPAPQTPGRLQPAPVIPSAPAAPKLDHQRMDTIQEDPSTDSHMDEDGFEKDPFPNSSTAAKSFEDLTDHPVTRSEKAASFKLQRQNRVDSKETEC
# Procedure: Inhibition of Soluble TNF-α Production (TACE Whole Blood Assay)
# This assay is used in the invention to measure the potency (IC50s) of compounds for TACE.
# Human mononuclear cells are isolated from anti-coagulated human blood using a one-step Ficoll-hypaque separation technique. (2) The mononuclear cells are washed three times in Hanks balanced salt solution (HBSS) with divalent cations and re-suspended to a density of 2×10^6/ml in HBSS containing 1% BSA.
# 180 μL of the cell suspension was aliquoted into flat bottom 96 well plates (Costar). Additions of compounds and LPS (100 ng/ml final concentration) gives a final volume of 200 μL. All conditions are performed in triplicate. After about a four hour incubation at about 37° C. in an humidified CO2 incubator, plates are removed and centrifuged (about 10 minutes at approximately 250×g) and the supernatants removed and assayed for TNF-α using the R&D ELISA Kit.
# aggrecanase = experiment: Aggrecanase chondrocyte assay (35S-proteoglycan release, IL-1 stimulated); assay type: cell-based, porcine
# Procedure: Aggrecanase Chondrocyte Assay
# This assay is used in the invention to measure the potency (IC50s) of compounds for aggrecanase.
# Primary porcine chondrocytes from articular joint cartilage are isolated by sequential trypsin and collagenase digestion followed by collagenase digestion overnight and are plated at 2×10^5 cells per well into 48 well plates with 5 μCi/ml ^35S (1000 Ci/mmol) sulphur in type I collagen coated plates. Cells are allowed to incorporate label into their proteoglycan matrix (approximately 1 week) at 37° C., under an atmosphere of 5% CO2.
# The night before initiating the assay, chondrocyte monolayers are washed two times in DMEM/1% PSF/G and then allowed to incubate in fresh DMEM/1% FBS overnight.
# The following morning chondrocytes are washed once in DMEM/1% PSF/G. The final wash is allowed to sit on the plates in the incubator while making dilutions. Media and dilutions can be made as described in the Table I below.
# Plates are labeled and only the interior 24 wells of the plate are used. On one of the plates, several columns are designated as IL-1 (no drug) and Control (no IL-1, no drug). These control columns are periodically counted to monitor 35S-proteoglycan release. Control and IL-1 media are added to wells (450 μl) followed by compound (50 μl) so as to initiate the assay. Plates are incubated at 37° C., with a 5% CO2 atmosphere.
# At 40–50% release (when CPM from IL-1 media is 4–5 times control media) as assessed by liquid scintillation counting (LSC) of media samples, the assay is terminated (about 9 to about 12 hours). Media is removed from all wells and placed in scintillation tubes. Scintillate is added and radioactive counts are acquired (LSC). To solubilize cell layers, 500 μL of papain digestion buffer (0.2 M Tris, pH 7.0, 5 mM EDTA, 5 mM DTT, and 1 mg/ml papain) is added to each well. Plates with digestion solution are incubated at 60° C. overnight. The cell layer is removed from the plates the next day and placed in scintillation tubes. Scintillate is then added, and samples counted (LSC).
# The percent of released counts from the total present in each well is determined. Averages of the triplicates are made with control background subtracted from each well.
# [1] = molecular target: Human recombinant collagenase-3 (Homo sapiens, UniProt P45452); experiment: Inhibition of human collagenase-3 (recombinant collagenase-3 assay); assay type: biochemical
# Procedure: Inhibition of Human Collagenase-3 (Recombinant Collagenase-3 Assay)
# This assay is used in the invention to measure the potency (IC50s) of compounds for collagenase-3.
# Human recombinant collagenase-3 is activated with 2 mM APMA (p-aminophenyl mercuric acetate) for about 2.0 hours, at about 37° C. and is diluted to about 240 ng/ml in assay buffer (50 mM Tris, pH 7.5, 200 mM sodium chloride, 5 mM calcium chloride, […], 0.02% BRIJ-35). Twenty-five micro-liters of diluted enzyme is added per well of a 96 well microfluor plate.
# The final concentrations in the assay are 30 μM, 3 μM, 0.3 μM, and 0.03 μM.
# Fluorescence readings (360 nm excitation; 450 nm emission) are taken at time 0 and about every 5 minutes for about 1 hour.
# Positive controls and negative controls are set up in triplicate as outlined in the collagenase-1 assay. IC50's are determined as per inhibition of human collagenase (collagenase-1).
# [2] = molecular target: T2, Human recombinant collagenase-1 (Homo sapiens, UniProt P03956); experiment: Inhibition of human collagenase-1 (recombinant collagenase-1 assay); assay type: biochemical; conditions: Table 2, read-out: MMP-1 (IC50 class)
# T2 sequence (P03956 100-469): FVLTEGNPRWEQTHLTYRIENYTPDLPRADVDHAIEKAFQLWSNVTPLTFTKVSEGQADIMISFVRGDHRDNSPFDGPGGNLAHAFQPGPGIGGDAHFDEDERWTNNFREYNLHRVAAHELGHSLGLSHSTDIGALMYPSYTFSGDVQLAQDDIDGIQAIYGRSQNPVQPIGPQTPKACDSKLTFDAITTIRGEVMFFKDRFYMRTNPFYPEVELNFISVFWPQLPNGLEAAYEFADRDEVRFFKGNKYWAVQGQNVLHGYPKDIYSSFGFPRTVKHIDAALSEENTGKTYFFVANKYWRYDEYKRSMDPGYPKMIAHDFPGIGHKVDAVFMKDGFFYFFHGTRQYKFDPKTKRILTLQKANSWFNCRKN
# Procedure: Inhibition of Human Collagenase-1 (Recombinant Collagenase-1 Assay)
# This assay is used in the invention to measure the potency (IC50s) of compounds for collagenase-1.
# Human recombinant collagenase-1 is activated with trypsin. The amount of trypsin is optimized for each lot of collagenase-1, but a typical reaction uses the following ratio: 5 mg trypsin per 100 mg of collagenase.
# Stock solutions (10 mM) of inhibitors are made up in dimethylsulfoxide and then diluted using the following scheme: • 10 mM------>120 μM------>12 μM------>1.2 μM------>0.12 μM
# Twenty-five microliters of each concentration is then added in triplicate to appropriate wells of a 96 well microfluor plate. The final concentration of inhibitor will be a 1:4 dilution after addition of enzyme and substrate. Positive controls (enzyme, no inhibitor) are set up in wells D7–D12 and negative controls (no enzyme, no inhibitors) are set in wells D1–D6.
# Collagenase-1 is diluted to 240 ng/ml and […] is then added to appropriate wells of the microfluor plate. Final concentration of collagenase in the assay is 60 ng/ml.
# Substrate (DNP-Pro-Cha-Gly-Cys(Me)-His-Ala-Lys(NMA)-NH2) is made as a 5 mM stock in dimethylsulfoxide and then diluted to 20 μM in assay buffer. The assay is initiated by the addition of […] substrate per well of the microfluor plate to give a final concentration of 10 μM.
# Fluorescence readings (360 nm excitation, 460 nm emission) are taken at time 0 and then at about 20 minute intervals. The assay is conducted at a temperature of about 20 to about 25° C., preferably about 23° C. with a typical assay time of about 3 hours.
# Fluorescence versus time is then plotted for both the blank and collagenase containing samples (data from triplicate determinations is averaged). A time point that provides a good signal (at least five fold over the blank) and that is on a linear part of the curve (usually around 120 minutes) is chosen to determine IC50 values. The zero time is used as a blank for each compound at each concentration and these values are subtracted from the 120 minute data. Data is plotted as inhibitor concentration versus % control (inhibitor fluorescence divided by fluorescence of collagenase alone ×100).
# [3] = Table 2, aggrecanase chondrocyte assay, read-out: Agg (aggrecanase IC50 class)
# [4] = Table 2, recombinant collagenase-3 assay, read-out: MMP-13 (IC50 class)
SMILES,IC50 (TACE),IC50 (aggrecanase; [3]),"IC50 [1, 4]",IC50 [2],"IC50 ([1]; human recombinant enzyme, fluorogenic peptide substrate, read-out: Collagenase-3 IC50)","IC50 (aggrecanase; primary porcine chondrocytes, IL-1 (5 ng/ml), read-out: Aggrecanase IC50)"
"C[C@@]1(O)CCCN(S(=O)(=O)c2ccc(OCc3ccccc3Cl)cc2)[C@H]1C(=O)NO [(2R,3R) 1-[4-(2-chloro-benzyloxy)-benzenesulfonyl]-3-hydroxy-3-methyl-piperidine-2-carboxylic acidhydroxyamide]",< 10000 nM,< 10 nM,< 10 nM,,,
"C[C@@]1(O)CCCN(S(=O)(=O)c2ccc(OCc3ccc(Cl)cc3F)cc2)[C@H]1C(=O)NO [(2R,3R) 1-[4-(2-fluoro-4-chloro-benzyloxy)-benzenesulfonyl]-3-hydroxy-3-methyl-piperidine-2-carboxylic acidhydroxyamide]",> 40000 nM,< 10 nM,< 10 nM,20 to 200 nM,,
"C[C@@]1(O)CCCN(S(=O)(=O)c2ccc(OCc3ccc(Cl)cc3Cl)cc2)[C@H]1C(=O)NO [(2R,3R) 1-[4-(2,4-dichloro-benzyloxy)-benzenesulfonyl]-3-hydroxy-3-methyl-piperidine-2-carboxylic acidhydroxyamide]",10000 to 20000 nM,< 10 nM,< 10 nM,200 to 1000 nM,,
CNC(=O)[C@H](Cc1ccc(OC)cc1)NC(=O)[C@@H](CC(=O)NO)CC(C)C [reference compound],,,,,1 nM,
"Cc1ccc(F)cc1COc1ccc(S(=O)(=O)N2CC(=O)N[C@@H](C)[C@@H]2C(=O)NO)cc1 [(2R,3S) 1-[4-(2-methyl-5-fluoro-benzyloxy)-benzenesulfonyl]-3-methyl-5-oxo-piperazine-2-carboxylic acidhydroxyamide]",< 10000 nM,< 10 nM,10 to 20 nM,> 1000 nM,,
CNC(=O)N1CCN(S(=O)(=O)c2ccc(OCc3cc(F)ccc3C)cc2)[C@@H](C(=O)NO)[C@@H]1C,< 10000 nM,< 10 nM,< 10 nM,> 1000 nM,,
"Cc1cc(F)ccc1COc1ccc(S(=O)(=O)N2CCC[C@@](C)(O)[C@@H]2C(=O)NO)cc1 [(2R,3R) 1-[4-(4-fluoro-2-methyl-benzyloxy)-benzenesulfonyl]-3-hydroxy-3-methyl-piperidine-2-carboxylic acidhydroxyamide]",< 10000 nM,< 10 nM,< 10 nM,,,
"CC1(C)C[C@@H](O)CN(S(=O)(=O)c2ccc(OCc3ccc(Cl)cc3Cl)cc2)[C@H]1C(=O)NO [(2R,5R) 1-[4-(2,4-dichloro-benzyloxy)-benzenesulfonyl]-5-hydroxy-3,3-dimethyl-piperidine-2-carboxylic acidhydroxyamide]",20000 to 40000 nM,< 10 nM,< 10 nM,200 to 1000 nM,,
"CNC(=O)N1CCN(S(=O)(=O)c2ccc(OCc3ccc(F)cc3F)cc2)[C@@H](C(=O)NO)[C@@H]1C [(2R,3S) 4-[4-(2,4-difluoro-benzyloxy)-benzenesulfonyl]-3-methyl-4-carboxylic acidmethylamide-piperazine-2-carboxylic acidhydroxyamide]",10000 to 20000 nM,10 to 20 nM,< 10 nM,200 to 1000 nM,,
"CCc1ccccc1COc1ccc(S(=O)(=O)N2CCN(C(=O)NC)[C@@H](C)[C@@H]2C(=O)NO)cc1 [(2R,3S) 4-[4-(2-ethyl-benzyloxy)-benzenesulfonyl]-3-methyl-4-carboxylic acidmethylamide-piperazine-2-carboxylic acidhydroxyamide]",< 10000 nM,< 10 nM,20 to 200 nM,> 1000 nM,,
"CC1(C)C[C@@H](O)CN(S(=O)(=O)c2ccc(OCc3ccc(F)cc3Cl)cc2)[C@H]1C(=O)NO [(2R,5R) 1-[4-(2-chloro-4-fluoro-benzyloxy)-benzenesulfonyl]-5-hydroxy-3,3-dimethyl-piperidine-2-carboxylic acidhydroxyamide]",10000 to 20000 nM,< 10 nM,< 10 nM,200 to 1000 nM,,
"Cc1c(F)cccc1COc1ccc(S(=O)(=O)N2CCC[C@@](C)(O)[C@@H]2C(=O)NO)cc1 [(2R,3R) 1-[4-(2-methyl-3-fluorobenzyloxy)-benzenesulfonyl]-3-hydroxy-3-methyl-piperidine-2-carboxylic acidhydroxyamide]",< 10000 nM,10 to 20 nM,< 10 nM,> 1000 nM,,
"C[C@@]1(O)CCCN(S(=O)(=O)c2ccc(OCc3ccccc3F)cc2)[C@H]1C(=O)NO [(2R,3R) 1-[4-(2-fluoro-benzyloxy)-benzenesulfonyl]-3-hydroxy-3-methyl-piperidine-2-carboxylic acidhydroxyamide]",20000 to 40000 nM,10 to 20 nM,,20 to 200 nM,,
NS(=O)(=O)c1ccc(CCNC(=O)C(CC2CCCCC2)NC(=O)C(CCCc2ccccc2)CC(=O)NO)cc1 (centres unmarked) [reference compound],,,,,,53.5 nM
"Cc1ccc(F)cc1COc1ccc(S(=O)(=O)N2CCC[C@@](C)(O)[C@@H]2C(=O)NO)cc1 [(2R,3R) 1-[4-(2-methyl-5-fluorobenzyloxy)-benzenesulfonyl]-3-hydroxy-3-methyl-piperidine-2-carboxylic acidhydroxyamide]",< 10000 nM,10 to 20 nM,< 10 nM,,,
